Earlier results as cited in US11053230B2, “3-hydroxy-imidazolidin-4-one compounds as inhibitors of indoleamine 2,3-dioxygenase” (Netherlands Translational Research Center B.V., priority 2017, dated 2021).

Legend:
lung carcinoma = details: syngeneic mouse lung carcinoma model and transgenic mouse model; cited from earlier work
[1] = system: melanoma and glioblastoma; details: mouse tumor models for melanoma and glioblastoma; cited from earlier work
[2] = system: IDO1 expressed in mouse tumor cells; details: pre-immunized mice; cited from earlier work
Leishmania major = details: in vivo; cited from earlier work
influenza virus = details: influenza virus-infected mice; cited from earlier work
[3] = randomized, open-label, phase 2, ovarian cancer patients; cited from earlier work
plasma kynurenine levels = details: phase 1, advanced solid malignancies, all doses; cited from earlier work
colon cancer = details: mouse model for colon cancer; cited from earlier work
[4] = target: tryptophan 2,3-dioxygenase (TDO) (Homo sapiens, UniProt P48775); details: biochemical assays; cited from earlier work
melanoma = details: mouse model for melanoma; cited from earlier work

Sequence of tryptophan 2,3-dioxygenase (TDO) (P48775 whole entry, species assumed): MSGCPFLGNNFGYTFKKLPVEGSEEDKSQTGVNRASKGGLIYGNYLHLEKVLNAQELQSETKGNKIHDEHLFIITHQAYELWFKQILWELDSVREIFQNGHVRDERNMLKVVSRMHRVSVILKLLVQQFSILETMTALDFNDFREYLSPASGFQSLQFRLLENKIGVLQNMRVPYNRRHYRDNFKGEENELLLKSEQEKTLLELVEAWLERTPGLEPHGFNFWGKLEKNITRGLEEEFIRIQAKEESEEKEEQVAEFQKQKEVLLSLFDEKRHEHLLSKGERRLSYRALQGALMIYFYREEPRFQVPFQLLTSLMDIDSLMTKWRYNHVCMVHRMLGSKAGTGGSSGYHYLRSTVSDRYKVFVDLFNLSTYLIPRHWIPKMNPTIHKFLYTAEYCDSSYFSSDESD

| SMILES | efficacy of a cancer vaccine in combination (lung carcinoma) | efficacy of PD-1 and CTLA4 antibodies in combination [1] | reversal of IDO1-mediated prevention of tumor cell rejection [2] | parasite burden (Leishmania major) | T cell response against the virus (influenza virus) | tolerability [3] | plasma kynurenine levels (plasma kynurenine levels) | tumor growth (colon cancer) | inhibition of TDO activity [4] | tumor growth (melanoma) |
| --- | --- | --- | --- | --- | --- | --- | --- | --- | --- | --- |
| Cn1cc(C[C@H](N)C(=O)O)c2ccccc21 [Example 1-MT, 1-methyl-L-tryptophan] | increased the efficacy of a cancer vaccine | increased the efficacy of antibodies | this effect could be reverted | reduced the parasite burden | enhanced T cell response against the virus | – | – | – | – | – |
| NS(=O)(=O)NCCNc1nonc1C(=NO)Nc1ccc(F)c(Br)c1 [epacadostat] | – | – | – | – | – | generally well tolerated | significant dose-dependent reductions | further reduction of tumor growth | – | – |
| Nc1nonc1C(=NO)Nc1ccc(F)c(Cl)c1 [compound 51, 4-amino-N-(3-chloro-4-fluorophenyl)-N′-hydroxy-1,2,5-oxadiazole-3-carboximidamide] | – | – | – | – | – | – | – | reduction of tumor growth | inhibit the activity of tryptophan 2,3-dioxygenase (TDO) | reduction of tumor growth |
